Source: PMC7590976, “Detection of Active Granzyme A in NK92 Cells with Fluorescent Activity-Based Probe” (Journal of Medicinal Chemistry, 2020)
Several values for one entry are separate records, joined by “and”; a condition that tells them apart may be missing. Equal entries are not always repeated. Non-standard residues stand in square brackets, D forms with d. *: point of attachment. Oic = O=C(O)[C@@H]1C[C@@H]2CCCC[C@@H]2N1; ACC = NC(=O)Cc1cc(=O)oc2cc(N*)ccc12

What was measured:
PR3 = test: Residual activity assay, PR3; assay type: biochemical; conditions: 3.4 nM PR3 preincubated with 10 μM compound 30 min 37 °C; substrate Ac-Glu(O-Bzl)-Lys(Ac)-Hyp(Bzl)-Nva-ACC
Method: (§1) We wondered whether the selectivity of our SK15-based molecules for GrA would be maintained by substrate structure modifications, such as replacing ACC with a diphenyl phosphonate warhead and changing the N-terminus from acetyl to the cyanine derivative Cy5.
(§2) As a control, enzymes without inhibitor and probe were tested.

GrM = test: Residual activity assay, GrM; assay type: biochemical, human; conditions: 74 nM GrM preincubated with 10 μM compound 30 min 37 °C; substrate Ac-Lys-Val-Pro-Leu-ACC
Method: as §1, §2

GrA [1] = test: Residual activity assay, GrA preinhibited with SK15I or SK15.5; assay type: biochemical, human; conditions: substrate SK15; preincubation 30 min, 37 °C
Method: as §1, §2

hNE = test: Residual activity assay, hNE; assay type: biochemical, human; conditions: 3.3 nM hNE preincubated with 10 μM compound 30 min 37 °C; substrate Ac-Arg(NO)2-Glu(Bzl)-Oic-Abu-ACC
Method: as §1, §2

GrA [2] = biological target: T1, GrA (Homo sapiens, UniProt P12544); test: Second-order inhibition rate constant kobs/I toward GrA, pseudo-first-order conditions; assay type: biochemical; conditions: pseudo-first-order; substrate SK15 10 μM; inhibitor 714–333 nM; GrA 350 nM added; pH 7.5, 37 °C; average of at least three experiments with SD
T1 construct: made in house; host or cells: Pichia pastoris
T1 sequence (P12544 29-262): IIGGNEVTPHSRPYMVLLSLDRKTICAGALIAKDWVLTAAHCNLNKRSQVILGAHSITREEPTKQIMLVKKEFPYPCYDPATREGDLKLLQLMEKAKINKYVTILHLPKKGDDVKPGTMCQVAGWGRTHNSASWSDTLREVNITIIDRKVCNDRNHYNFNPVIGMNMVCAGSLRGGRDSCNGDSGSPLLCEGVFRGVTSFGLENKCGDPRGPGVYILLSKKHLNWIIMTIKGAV
Method: We calculated the apparent second-order rate constants for inhibition (kobs(app)/I) of GrA-mediated SK15I under pseudo first-order conditions by serially diluting the new inhibitor in the range of 714–333 nM with a constant optimal substrate (SK15) concentration of 10 μM (Figure 3B).
The second-order inhibition rate constant (kobs/I expressed in M^–1 s^–1) toward GrA was measured under pseudo-first-order kinetic conditions. Ten microliters of substrate (SK15) was mixed with varying inhibitor or probe concentrations and incubated at 37 °C for 15 min. […] Experiments are presented as the average of at least three experiments with standard deviation.

GrA in NK92 cell lysates = conditions: lysates 1 × 10^7 cells/mL, probe 250 nM to 2 μM, 1 h, 37 °C
GrA [3] = biological target: T2, GrA (Homo sapiens, UniProt P12544); test: In-gel detection of recombinant GrA with SK15.5 (SDS-PAGE); assay type: binding; conditions: GrA forms 250 nM, probe 500 nM, 1 h, Western blot
T2 construct: made in house; host or cells: Pichia pastoris
T2 sequence (P12544 27-262): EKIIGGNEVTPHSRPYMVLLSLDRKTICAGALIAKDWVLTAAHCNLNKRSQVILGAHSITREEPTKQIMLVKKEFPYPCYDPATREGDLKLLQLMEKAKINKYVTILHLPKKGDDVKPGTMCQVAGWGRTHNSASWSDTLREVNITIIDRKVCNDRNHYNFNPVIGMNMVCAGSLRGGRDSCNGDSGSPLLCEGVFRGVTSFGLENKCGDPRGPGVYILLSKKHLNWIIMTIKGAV
Method: (§3) Next, we tested the utility of our fluorescent probe for the in-gel detection of active GrA in test samples. […] We then ran a simple SDS-PAGE assay to detect labeled GrA (Figure 4A). […] In our hands, the probe bound to the enzyme, as indicated by the fluorescent 35 kDa species, after the minimal incubation time (5 min). […] The optimal concentration was 500 nM (strong signal) (Figure 4B).
(§4) (A) Incubation time of SK15.5 with enzyme optimization. […] (D) GrA in-gel detection in NK92 cell lysates. […] The results are representative of at least 2 replicates.
(§5) In contrast to the closely related GrB, GrH, GrM, and GrK, GrA is a homodimer formed by stable disulfide-linked subunits.[26] Since the subunits are oriented in opposite directions, the surrounding area may form an exosite.[26]
(§6) In the incubation time optimization assay, the enzyme and probe concentrations were constant (250 nM), and the incubation time ranged from 0 to 120 min. […] Enzyme was incubated with probe in a volume of 80 μL, followed by the reduction with 40 μL of 3 × SDS/DTT for 5 min at 95 °C. Samples were centrifuged (3 min, 4500g), and 40 μL of each sample was run on 4–12% Bis-Tris 10-well gels (Invitrogen). The first well was loaded with 2 μL of the protein marker PageRuler Plus Prestained Protein Ladder (Thermo Scientific). Electrophoresis was conducted at 165 V for 37 min at room temperature. […] Total sample volume was 80 μL, to which 40 μL of 3× SDS/DTT was added and boiled for 5 min at 95 °C. Samples were centrifuged (3 min, 4500g), and 40 μL of each sample was run on 4–12% Bis-Tris 10-well gels (Invitrogen). Each form of the enzyme without SK15.5 and probe itself were run as controls. The first well was loaded with 2 μL of protein marker PageRuler Plus Prestained Protein Ladder (Thermo Scientific). Electrophoresis and membrane transfer were conducted in the same manner as above.

GrA [4] = biological target: T1, GrA; test: as above; assay type: binding; conditions: GrA 250 nM, 37 °C
Method: as §3, §4, §5, §6

GrK = biological target: T3, GrK (Homo sapiens, UniProt P49863); test: Residual activity assay, GrK; assay type: biochemical; conditions: 488 nM GrK preincubated with 10 μM compound 30 min 37 °C; 200 μM GrKref
T3 construct: made in house; host or cells: Pichia pastoris
T3 sequence (P49863 27-264): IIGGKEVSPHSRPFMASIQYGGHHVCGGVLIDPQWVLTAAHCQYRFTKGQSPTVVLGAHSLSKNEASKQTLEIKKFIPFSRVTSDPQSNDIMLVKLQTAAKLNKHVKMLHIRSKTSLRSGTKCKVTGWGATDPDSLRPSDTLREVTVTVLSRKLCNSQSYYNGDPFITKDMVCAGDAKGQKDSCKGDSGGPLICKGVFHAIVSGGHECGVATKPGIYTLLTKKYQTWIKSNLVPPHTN
Method: as §1, §2

GrB [5] = biological target: T4, GrB (Homo sapiens, UniProt P10144); test: Residual activity assay, GrB; assay type: biochemical; conditions: 18 nM GrB preincubated with 10 μM compound 30 min 37 °C; 200 μM GrBref
T4 construct: made in house; host or cells: Pichia pastoris
Method: as §1, §2

GrA [6] = biological target: T1, GrA; test: Steady-state Michaelis–Menten kinetics of fluorogenic ACC substrates with GrA; assay type: biochemical; conditions: GrA 93 nM, 37 °C, ACC fluorescence 355/460 nm
Text: All chemical and biological reagents were purchased from commercial suppliers and used without further purification. The following reagents for solid phase peptide synthesis, Rink Amide RA resin (particle size 200–300 mesh, loading 0.74 mmol/g), 2-chlorotrityl chloride resin, Fmoc-protected amino acids, biotin, 1-[bis(dimethylamino)methylene]-1H-1,2,3-triazolo[4,5-b] pyridinium 3-oxid hexafluorophosphate (HATU), piperidine, diisopropylcarbodiimide (DICI), and trifluoroacetic acid (TFA), were purchased from Iris Biotech GmbH (Marktredwitz, Germany); anhydrous N-hydroxybenzotriazole (HOBt, purity >98%) was purchased from Creosauls; 2,4,6-collidine (2,4,6-trimethylpyridine), HPLC pure acetonitrile, and triisopropylsilane (TIPS) were purchased from Sigma-Aldrich (Poznan, Poland); and N,N-diisopropylethylamie (DIPEA) was purchased from VWR International (Gdansk, Poland). Solvents such as N,N-dimethylformamide (DMF), dichloromethane (DCM), methanol (MeOH), diethyl ether (Et2O), and acetic acid (AcOH) were purchased from Avantor (Gliwice, Poland). Cy5 was purchased from Lumiprobe GmbH (Hannover, Germany). Human neutrophil elastase was purchased from BioCentrum (Kraków, Poland) and proteinase 3 from Athens Research Technology (Athens, USA). Anti-GrA antibody (rabbit, monoclonal, ab209205) was obtained from Abcam (Cambridge, Great Britain). All cell lines were purchased from DSMZ (Braunschweig, Germany) or ATCC (Manassas, USA). All kinetic assays were performed using a Spectra Max Gemini XPS spectrofluorometer (Molecular Devices) on 96-well Corning plates. The parameters of the process were as follows: 37 °C; excitation/emission wavelength, 355/460 nm; cutoff, 455 nm; varying concentrations of substrates and enzyme. All measurements were performed in duplicate, and the data represent the average of these repetitions

GrB [7] = biological target: T4, GrB; test: GrA substrate selectivity testing on GrB; assay type: biochemical; conditions: substrate 200 μM (Fig 3A) or 67 μM, 18 nM GrB
Text: Since GrA and GrK are the most structurally similar Grs, they may recognize and hydrolyze the same natural and synthetic substrates. Therefore, we tested whether our new GrA substrates are also recognized by GrK or GrB (Figure 3A). For this experiment, we screened substrates SK8 to SK28 and a GrKref substrate (Ac-Tyr-Arg-Phe-Lys-ACC) or GrBref substrate (Ac-Ile-Glu-Pro-Asp-ACC) at the same concentration using a plate reader, and we monitored the increase in fluorescence over time. The linear portions of the diagram were analyzed, and as we expected, the majority of the substrates were well recognized by GrK, even better than their recognition by GrA. […] Based on that, we concluded that Tic-Gly-Oic-Arg is a leading sequence for a specific potent inhibitor and ABP for GrA.
Figure 3 (A) GrA substrate selectivity testing on GrK and GrB. Substrates SK8–SK28 and the reference GrK and GrB substrates were placed in a 96-well plate at a concentration of 200 μM and treated with GrK or GrB. […] Data present the average of 2 replicates as adjusted RFU/s.
Figure S2. Selectivity of SK15 substrate toward selected serine proteases (GrA, GrB, GrM, GrK,
PR3, and hNE). The reference substrates were as follows: Ac-Ile-Gly-Pro-Arg-ACC for GrA, Ac -Tyr-
Arg-Phe-Lys-ACC for GrK, Ac-Ile-Glu-Pro-Asp-ACC for GrB, Ac-Lys-Val-Pro-Leu-ACC for GrM,
Ac-Glu(O-Bzl)-Lys(Ac)-Hyp(Bzl)-Nva-ACC for PR3 and Ac-Arg(NO)2-Glu(Bzl)-Oic-Abu-ACC for hNE.
Substrates were placed in a 96-well plate at a concentration of 67 µM and treated with optimal
and emission wavelengths. Data present the average of 2 replicates as adjusted RFU/s.
Figure S3. Detection of active GrA in NK92 cells.
(also on this page, place not known: S K15 hNE) . Ac-Tyr- -Arg(NO)2-Glu(Bzl)-Oic-Abu-ACC ( 89 G rA cell s. reference reference SK15 reference SK15 reference SK15 reference SK15 reference SK15 0 50 100 substrate turnover, %RFU/s PR3GrMGrBGrK hNEGrA SK15 selectivity) […]

human GrA = test: P1 library screening (individual substrates Ac-Ile-Ser-Pro-P1-ACC) with GrA; conditions: relative to best P1 residue (100%); substrates at the same concentration; fluorescence 355/460 nm

T4 sequence (P10144 21-247): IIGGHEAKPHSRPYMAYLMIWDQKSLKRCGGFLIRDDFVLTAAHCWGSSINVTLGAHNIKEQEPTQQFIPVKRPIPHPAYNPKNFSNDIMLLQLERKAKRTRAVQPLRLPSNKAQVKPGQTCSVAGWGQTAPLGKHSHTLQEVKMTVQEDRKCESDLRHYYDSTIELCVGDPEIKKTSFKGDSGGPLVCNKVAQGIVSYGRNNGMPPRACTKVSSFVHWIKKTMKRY

Substance: Cy5-Ahx-Tic-Gly-Oic-Arg^P(OPh)2 [SK15.5]
- inhibition of PR3 (PR3): almost no inhibition effect
- inhibition of GrM (GrM): almost no inhibition effect
- residual GrA activity after preinhibition (in words) (GrA [1]): completely blocked
- inhibition of hNE (hNE): almost no inhibition effect
- kobs/I (GrA [2]): 3521 ± 296 M^–1 s^–1
- selectivity of labeling in NK92 cell lysates (in words) (GrA in NK92 cell lysates): did not observe any additional bands
- probe labeling of GrA zymogen (in words) (GrA [3]): no signal was detected in the zymogen
- optimal probe concentration for GrA labeling (strong signal) (GrA [4]; 30 min, SDS-PAGE): 500 nM
- detection limit, minimum probe concentration needed for GrA labeling (GrA [4]; 30 min, SDS-PAGE, estimated): approximately 50 nM
- incubation time after which labeling no longer increases (maximal labeling) (GrA [4]; probe 250 nM): 30 min
- minimal incubation time after which probe-bound GrA is detected (GrA [4]; probe 250 nM): 5 min
- inhibition of GrK (GrK): 3%
- inhibition of GrB (GrB [5]): almost no inhibition effect

Substance: Ac-Ile-Gly-Pro-Arg-ACC (Ac-IGPR-{ACC}; SMILES CC[C@H](C)[C@H](NC(C)=O)C(=O)NCC(=O)N1CCC[C@H]1C(=O)N[C@@H](CCCNC(=N)N)C(=O)Nc1ccc2c(CC(N)=O)cc(=O)oc2c1) [SK7, reference compound]
- kcat (GrA [6]; assay buffer pH 7.5): 0.035 ± 0.00076 s⁻¹
- kcat/KM (GrA [6]; assay buffer pH 7.5): 78 ± 6.60 s^–1 M^–1 and 78 ± 6.6 M^–1 s^–1
- Km (GrA [6]; substrate 1000–7.81 μM, 50 mM Tris, 100 mM NaCl, 5 mM CaCl2, 0.01% Tween-20, pH 7.5, Michaelis–Menten nonlinear regression, duplicate): 450 ± 1.3 µM

Substance: Ac-Met(O)-Gly-Hyp(Bzl)-3-Abz-ACC [SK13]
- hydrolysis by GrB (in words) (GrB [7]): significantly hydrolyzed

Substance: L-Lys
- relative GrA activity on P1 library substrate Ac-Ile-Ser-Pro-P1-ACC (human GrA): 21%

Substance: L-Asp
- relative GrA activity on P1 library substrate Ac-Ile-Ser-Pro-P1-ACC (human GrA): 17.8%

Substance: L-Arg
- relative GrA activity on P1 library substrate Ac-Ile-Ser-Pro-P1-ACC (human GrA): 92%

Substance: Ac-IG[Oic]R-{ACC} (SMILES CC[C@H](C)[C@H](NC(C)=O)C(=O)NCC(=O)N1[C@H](C(=O)N[C@@H](CCCNC(=N)N)C(=O)Nc2ccc3c(CC(N)=O)cc(=O)oc3c2)C[C@@H]2CCCC[C@@H]21) [SK17]
- hydrolysis by GrB (in words) (GrB [7]): significantly hydrolyzed
